Experimental data taken from patent US9210914B2, “Method for training honeybees to respond to olfactory stimuli and enhancement of memory retention therein” (LOS ALAMOS NATIONAL SECURITY, LLC, priority 2011, dated 2015).

Legend:
Format in all cases: in vivo, Apis mellifera
[1] = test system: honeybees; experiment: Long-term memory retention of conditioned PER response in honeybees fed supplements
Experimental: (§1) The bees were brought back to the lab and split into three groups. One control group was fed 40% sugar water in a trough or on parafilm in cage. […] The second and third experimental groups were given 40% sugar water spiked with the cocktail. All honeybees were handled the same way. The mixture was to the honeybees from the beginning of capture, through training and until the completion of the experiment.
Long-term memory enhancements using PKA and caffeine were also tested. […] Approximately 3.9 units PKA/bee (1 μl) and 15.6 units PKA/bee (4 μl) were administrated.

[2] = test system: honeybees; experiment: Death rate of honeybees after supplement administration; conditions: Four μl PKA (15.6 units PKA/bee)
Experimental: as §1
Long-term memory enhancements using PKA and caffeine were also tested. Caffeine and PKA, when administered separately, increase long-term memory out to a minimum of 3 days post training. Approximately 3.9 units PKA/bee (1 μl) and 15.6 units PKA/bee (4 μl) were administrated.

[3] = test system: honeybees; experiment: Trainability of honeybees in PER olfactory conditioning; conditions: JHIII alone, 250 mg/ml in acetone, topical administration to thorax, 3 ul; foragers (TNT) or young (linalool)
[4] = 1 μl PKA (approximately 3.9 units PKA/bee)

Cn1c(=O)c2c(ncn2C)n(C)c1=O [Caffeine, caffeine]
long term memory recall ([1]; caffeine at 2.5 mM, compared to concentrations ranging 0-5 mM): best improvement in long term memory recall

protein kinase A [PKA]
long-term memory at the 24 hour mark [1, 4]: increase in long-term memory | long-term memory at the 48 hour mark [1, 4]: increase in long-term memory | death rate at Day 3 post training and exposure [2]: larger death rate

COC(=O)/C=C(\C)CC/C=C(\C)CC[C@H]1OC1(C)C [JHIII, Juvenile Hormone III]
trainability [3]: does not appear to substantially increase trainability

Nc1ncnc2c1ncn2[C@@H]1O[C@@H]2COP(=O)(O)O[C@H]2[C@H]1O [cAMP, cyclic adenosine monophosphate]
long-term memory in honeybees trained to C-4 ([1]; 1mM cAMP ingested in 40% sucrose solution, alone): did not appear to significantly increase long-term memory
